Test results: patent publication US5869487A, “Pyrido[3,4-B]pyrazines for use as thrombin inhibitors” (Merck & Co., Inc., priority 1997, dated 1999)
pKi: −log10 of the molar value.

Target: T1, human α-thrombin (Homo sapiens, UniProt P00734)
T1 construct: Assays of human α-thrombin
Assay: In vitro assay for determining proteinase inhibition (human α-thrombin)
Format: biochemical
Settings: 25° C., 0.05M TRIS buffer pH 7.4, 0.15M NaCl, 0.1% PEG; sar-PR-pna or Z-GPR-afc substrate
Experimental: In vitro assay for determining proteinase inhibition
Assays of human α-thrombin and human trypsin were performed at 25° C. in 0.05M TRIS buffer pH 7.4, 0.15M NaCl, 0.1% PEG. Trypsin assays also contained 1 mM CaCl2.
In assays wherein rates of hydrolysis of a p-nitroanilide (pna) substrate were determined, a Thermomax 96-well plate reader was used to measure (at 405 nm) the time dependent appearance of p-nitroaniline. sar-PR-pna (sarcosine-Pro-Arg-p-nitroanilide) was used to assay human α-thrombin (Km =125 μM) and human trypsin (Km =59 μM). p-Nitroanilide substrate concentration was determined from measurements of absorbance at 342 nm using an extinction coefficient of 8270 cm^-1 M^-1.
In certain studies with potent inhibitors (Ki <10 nM) where the degree of inhibition of thrombin was high, a more sensitive activity assay was employed. In this assay the rate of thrombin catalyzed hydrolysis of the fluorogenic substrate Z-GPR-afc (Cbz-Gly-Pro-Arg-7-amino-4-trifluoromethylcoumarin) (Km =27 μM) was determined from the increase in fluorescence at 500 nm (excitation at 400 nm) associated with production of 7-amino-4-trifluoromethyl coumarin. Concentrations of stock solutions of Z-GPR-afc were determined from measurements of absorbance at 380 nm of the 7-amino-4-trifluoromethyl coumarin produced upon complete hydrolysis of an aliquot of the stock solution by thrombin.
Activity assays were performed by diluting a stock solution of substrate at least tenfold to a final concentration 0.5 Km into a solution containing enzyme or enzyme equilibrated with inhibitor. Times required to achieve equilibration between enzyme and inhibitor were determined in control experiments. Initial velocities of product formation in the absence (Vo) or presence of inhibitor (Vi) were measured. Assuming competitive inhibition, and that unity is negligible compared Km /[S], […] (where [S], [I], and e respectively represent the total concentrations, of substrate, inhibitor and enzyme), the equilibrium constant (Ki) for dissociation of the inhibitor from the enzyme can be obtained from the dependence of Vo /Vi on [I] shown in equation 1.

SMILES | pKi
Cc1cc2c(c(=O)n1CC(=O)NCc1cc(Cl)ccc1OCC(=O)NC1CC1)NC(=O)[C@H](Cc1ccccc1)N2 | > 9.00
Cc1cc2c(c(=O)n1CC(=O)NCc1ccccc1OCC(=O)NC1CC1)NC(=O)[C@H](CC1CC1)N2C | > 9.00
Cc1nc(N)ccc1CNC(=O)Cn1c(C)cc2c(c1=O)NC(=O)[C@H](CC1CC1)N2 | > 9.00

The remaining lines, values ahead:

pKi | SMILES
< 9.00 | Cc1nc(N)ccc1CNC(=O)Cn1c(C)cc2c(c1=O)NC(=O)CN2Cc1ccccc1
> 9.00 | Cc1nc(N)ccc1CNC(=O)Cn1c(C)cc2c(c1=O)NC(=O)[C@H](CC1CC1)N2C
> 9.00 | Cc1cc2c(c(=O)n1CC(=O)NCc1ccc(N)nc1)NC(=O)[C@H](CC1CC1)N2C
> 9.00 | Cc1nc(N)ccc1CNC(=O)Cn1c(C)cc2c(c1=O)NC(=O)[C@H](Cc1ccccc1)N2
< 9.00 | Cc1nc(N)ccc1CNC(=O)Cn1c(C)cc2c(c1=O)NC(=O)[C@@H]1CCCCN21
